# Laboratory results reported in ChEMBL document CHEMBL3393013, “Structural Insights for the Optimization of Dihydropyrimidin-2(1H)-one Based mPGES-1 Inhibitors” (ACS Med Chem Lett, 2015).
# pIC50: −log10 of the molar value.
# Target: T1, Prostaglandin E synthase (Homo sapiens, UniProt O14684)
# T1 sequence (O14684 whole entry): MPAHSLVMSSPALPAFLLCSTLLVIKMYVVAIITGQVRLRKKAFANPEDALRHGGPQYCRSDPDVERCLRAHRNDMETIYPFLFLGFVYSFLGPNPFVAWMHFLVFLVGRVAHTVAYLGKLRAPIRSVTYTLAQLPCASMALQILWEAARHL
# Experiment: Inhibition of mPGES-1 in interleukin-1beta-stimulated human A549 cells microsomal membranes assessed as reduction in PGE2 formation incubated for 15 mins in presence of PGH2 and glutathione by RP-HPLC method
# Type: cell-based
row,pIC50,Structure (SMILES)
1,5.25,CC1=C(C(=O)c2cc(Br)ccc2O)C(c2ccc(-c3cccc(C(F)(F)F)c3)o2)NC(=O)N1 (stereo not drawn)
2,5.85,CC1=C(C(=O)OCc2ccccc2)C(c2ccc(-c3cccc(C(F)(F)F)c3)o2)NC(=O)N1 (stereo not drawn)
3,6.39,CC1=C(C(=O)OCc2ccccc2)C(c2ccc(-c3cccc(C(F)(F)F)c3)o2)NC(=O)N1CCC(=O)O (stereo not drawn)
